# Results published in PMC12957798, “Adaptation of plateau frog peptide: From antimicrobial to angiogenic and proliferative functions” (Journal of Advanced Research, 2025).
# Tests used:
# TGF-β1 mRNA = assay: qPCR TGF-β1 mRNA in HaCaT; assay type: cell-based, Human; details: SC17-2, HaCaT
# Experimental: (§1) HaCaT cells were treated as above, washed twice with PBS and lysed using Trizol for 5 min, after which 200 μL of chloroform was added and shaken vigorously for 30 s. The cells were centrifuged for 15 min to separate the upper and lower layers (12,500 g, 4 °C). The supernatant was vortexed with an equal amount of isopropanol and left to stand for 10 min, and then centrifuged again under the same conditions to retain only the white precipitate. 500 μL of 75 % ethanol was added and centrifuged (12000 rpm, 4 °C, 10 min) and the operation was repeated twice. Afterwards, DEPC was used for dissolution and the concentration was determined by nanodrop. One-step reverse transcription to DNA was performed using 5 × MIX, after which primers and 2 × MIX were added and placed. qPCR was performed (LightCycler96, F. Hoffmann-La Roche, Swiss).
# HaCaT cells [1] = assay: In vitro UVB damage repair (CCK-8); assay type: cell-based, Human
# Experimental: HaCaT cells were inoculated in 24-well plates at 1 × 10^4 cells/well and incubated for 24 h to ensure uniformity and number of cells per well. Prior to UVB irradiation, cells were washed with phosphate buffer solution (PBS) and covered with 300 μL of PBS. The blank control group was wrapped through tinfoil to eliminate the effects caused by UVB irradiation and subsequently irradiated through […]. Immediately after irradiation, PBS was replaced with DMEM/F12 medium and 20 and 5 μg/mL of peptides SC17-2 were added, respectively, and incubated for 24 h. After that, 10 μL of CCK-8 was added to each well, and incubated for 2 h. The absorbance values of each well were measured at 450 nm.
# TGF-β = assay: Western blot TGF-β in HaCaT; assay type: cell-based, Human; details: SC17-2 20 μg/mL, 24 h (16 h elsewhere in the source), n = 3
# Experimental: (§2) HaCaT was inoculated in 12-well plates (2 × 10^5 cells/well) and cultured for 24 h. Afterwards, HaCaT cells were treated with equal amounts of VEGF, SC17-2, and PBS for 16 h. Cells were washed with PBS, after which the samples were collected and added to 1 mL of RIPA lysate containing protease inhibitors and phosphatase inhibitors and placed on ice for 30 min. Allowed to be after sufficient lysis, the supernatant was centrifuged and collected to determine the protein concentration using a nanodrop, followed by the addition of SDS sampling buffer and heating at 95 °C for 10 min. Samples were loaded and run on a gel block based on the determined sample concentration, and then electrotransferred onto a 0.45 μm PVDF membrane. […] After washing three times with TBST, proteins were visualised and scanned by enhanced chemiluminescence using the ChemiDoc XRS imaging system (Bio-Rad, Hercules, CA, USA).
# HSF cells = assay: In vitro wound healing (migration) assay, HSF; assay type: cell-based, Human; details: SC17-2 concentrations exceeding 10 μg/mL, 16 h
# EGFR = EGFR (Homo sapiens, UniProt P00533); assay: Surface plasmon resonance (SPR); assay type: binding
# Experimental: The analysis of biomolecular interactions was conducted utilising a Biacore S200 biosensor system (S200, Biacore, China). Briefly, the EGFR (20 μg/mL) was immobilised by amine coupling on the surface of a CM5 sensor chip (29104988, Cytiva, China) with a resonance unit (RU) of approximately 2000, using a sodium acetate buffer (10 mM, pH 4) as the immobilisation solution. In order to assess the affinity of SC17-2 for the epidermal EGFR, SC17-2 was injected at a flow rate of 30 μL/min onto a chip containing immobilised EGFR. The injection of SC17-2 was carried out at a flow rate of 30 μL/min at concentrations ranging from 5 to 500 μg/mL. The RU were recorded. The binding dissociation constants (KD) were determined using BiacoreTM Insight software.
# [2] = Antioxidant activity (stated, no separate method); details: no separate method or value printed
# CD31 = CD31 immunofluorescence of mouse wound sections (angiogenesis); assay type: in vivo; details: 13 days
# Experimental: Use scissors to remove the tissue around the wound, put the tissue into 4 % paraformaldehyde solution, put the tissue in 4 °C for 24 h, use a tissue embedding machine for embedding, use a rotary slicer to section the tissue, put the section into environmentally friendly dewaxing solution to dewax for 3 times, 10 min each time, then use anhydrous ethanol to treat the section for 3 times, 5 min each time, rinse with distilled water and then repair the section by EDTA antigen repair solution. The slides were then incubated overnight at 4 °C with Anti-CD31 Mouse mAb as primary antibody and at room temperature for 50 min, protected from light, in PBS (pH 7.4), shaken and washed 3 times for 5 min each time on a decolourising shaker. Incubate at room temperature for 10 min. Images were captured using a scanner (Pannoramic MIDI), and graphics were processed using imageJ. The results were calculated as follows: relative staining area of blood vessels = An/average (Ac), An indicates the fluorescence staining area of CD31 obtained from the current sample by ImageJ statistics, […], and Ac is the fluorescence staining area of CD31 of all control samples.
# ImageJ was used to quantify the percentage of stained area for Masson and the percentage of fluorescent area for CD31. All data were analysed by GraphPad Prism 9.5 software. Data were expressed as mean ± SEM. Comparisons between multiple groups were performed by using one-way analysis of variance (ANOVA) and Tukey's multiple comparison test. Differences between groups were commonly tested by ANOVA, P < 0.05 was considered statistically significant.
# TGF-α mRNA = assay: qPCR TGF-α mRNA in HaCaT; assay type: cell-based, Human; details: SC17-2 20 μg/mL, n = 6
# Experimental: as §1
# HUVEC cells = assay: In vitro wound healing (migration) assay, HUVEC; assay type: cell-based, Human; details: SC17-2 concentrations exceeding 10 μg/mL, 16 h
# (p-Smad2/3)/(Smad2/3) = assay: Western blot p-Smad2/3 / Smad2/3 in HaCaT; assay type: cell-based, Human; details: SC17-2 20 μg/mL, 24 h (16 h elsewhere in the source), n = 3
# Experimental: as §2
# EGF mRNA = assay: qPCR EGF mRNA in HaCaT; assay type: cell-based, Human; details: SC17-2 20 μg/mL, n = 6
# Experimental: as §1
# p-ERK/ERK = assay: Western blot p-ERK/ERK in HaCaT; assay type: cell-based, Human; details: SC17-2 20 μg/mL, 24 h (16 h elsewhere in the source), n = 3
# Experimental: as §2
# HaCaT cells [3] = assay: In vitro scratch wound healing (migration) assay, HaCaT; assay type: cell-based, Human; details: SC17-2 concentrations exceeding 10 μg/mL, 16 h
sequence,measurement,setting,value
"SFMPLSIPIMCKMLSKC [SC17-2, peptide of the pleskein family from the skin transcriptome of the frog Nanorana parkeri, made by solid-phase synthesis]",TGF-β1 expression (qPCR),TGF-β1 mRNA,simultaneous increase
same,UVB damage repair compared with non-irradiated group,HaCaT cells [1]; SC17-2 20 μg/mL vs group not irradiated,considerably less pronounced
same,attenuation of UVB-induced damage,"HaCaT cells [1]; SC17-2 20 μg/mL, 24 h after 5 J/cm UVB, CCK-8, vs saline after irradiation",capable of effectively removing the damage caused by UVB radiation
same,attenuation of cell injuries after UVB irradiation,"HaCaT cells [1]; SC17-2 20 and 5 μg/mL, 24 h, CCK-8, n = 3",could attenuate the cell injuries
same,expression of TGF-β,TGF-β,significantly increase the expression of TGF-β
same,HSF migration,HSF cells,notable enhancement
same,"EGFR binding, dose dependence",EGFR,binds in a dose-dependent manner
same,antioxidant activity,[2],demonstrated antioxidant activity
same,"number of blood vessels in wounds, dose dependence",CD31; CD31 images,number of blood vessels in the wounds increased with the increase of SC17-2 concentration
same,blood vessel formation (CD31 staining),"CD31; SC17-2 5 μg/mL, n = 9",promoted blood vessel formation
same,proangiogenic effect compared with VEGF (CD31 staining),"CD31; SC17-2 10 and 20 μg/mL, n = 9",more pronounced than that of VEGF
same,mRNA expression of TGF-α,TGF-α mRNA,significantly elevated
same,HUVEC migration,HUVEC cells,notable enhancement
same,Smad2/3 phosphorylation,(p-Smad2/3)/(Smad2/3),significantly increased Smad2/3 phosphorylation
same,mRNA expression of EGF,EGF mRNA,significantly elevated
same,ERK phosphorylation,p-ERK/ERK,significantly increased ERK phosphorylation
same,HaCaT migration,HaCaT cells [3],notable enhancement
